# Non-standard residues stand in square brackets, D forms with d. Residues, ends and D or L forms follow the SMILES beside them.
# How the values were obtained:
# aspergillus flavous = assay: microbe, parasite or virus in culture; type: cell-based
# Method: (§1) • (1) Test strains: monilia albicans (candida albicans), candida glabrata, candida krusei, candida tropicalis, aspergillus fumigatus and flavous. Antimicrobial peptides PL-13 (SEQ ID NO: 1) under test are supplied by Jiangsu ProteLight Pharmaceutical & Biotechnology Co., LTD. […] Activation of bacterial strains is conducted at a humidity level of 60% and 25° C. (for aspergillus) or 37° C. (for candida). (2) 0.9% stroke-physiological saline solution comprising 0.5% Tween-80 is used to prepare bacterial suspension for experiment. Hemocytometer is utilized to adjust concentration of the bacterial suspension to 1-3×10^6 CFU/ml (0.5 McFarland units) to make stock solution in reserve at -20° C. During the sensitivity test, the RPMI-1640 liquid medium is diluted 1000 times to 1-3×10^3 CFU/ml. (3) The RPMI-1640 liquid is utilized as diluent to 10-fold dilute stock solution of peptides. […] The eleventh orifice is used as living control orifice, while the twelfth one as blank control. (4) The RPMI-1640 liquid is utilized as diluent to 10-fold dilute stock solution of FCZ and ICZ. […] Ditto for other operations.
# candida albicans = assay: microbe, parasite or virus in culture; type: cell-based
# Method: as §1
# [1] = Circular dichroism (CD) spectroscopy, helical structure; type: physicochemical; conditions: for 50% TFE % helix / Benign buffer % helix: relative to ellipticity (100%) of reference peptide in 50% TFE
# Method: The mean residue molar ellipticities of peptides are determined by circular dichroism (CD) spectroscopy, using a Jasco J-720 spectropolarimeter (Jasco, Easton, Md.), at 25° C. under benign conditions (50 mM KH2PO4/K2HPO4/100 mM KCl, pH7), as well as in the presence of an α-helix inducing solvent, 2,2,2-trifluoroethanol (TFE) (50 mM KH2PO4/K2HPO4/100 mM KCL, pH 7 buffer/50% TFE). A 10-fold dilution of a 500 μM stock solution of the peptide is loaded into a 0.02 cm fused silica cell and its mean residue molar ellipticity scanned from 190 to 250 nm. The values of mean residue molar ellipticities of the peptide at a wavelength of 222 nm are used to estimate the relative amount of α-helicity of the peptides.
# To determine the secondary structure of peptides in different environments, circular dichroism (CD) spectra of the peptide analogs are measured under physiologically related pH and ionic strength (100 mM KCl, 50 mM aq. PO4, pH 7 referred to as benign conditions) and also in 50% TFE to mimic the hydrophobic environment of the membrane. CD spectra of the peptide analogs are measured under benign conditions (100 mM KCl, 50 mM KH2PO4/K2HPO4, pH 7, referred to as KP buffer) and also in 50% trifluoroethanol (TFE) to mimic the hydrophobic environment of the membrane. […] However, in the presence of 50% TFE, all three L-peptides are fully folded α-helical structures with similar molar ellipticities and helicity.
# FIG. 2 illustrates graphical results of Circular dichroism (CD) spectra of peptides at pH 7.4 and 25° C., in 50 mM aq. PO4 containing 100 mM KCl, wherein KP buffer (50 mM KH2PO4, K2HPO4, 100 mM KCl, pH 7.4) mimics hydrophilic environment and KP buffer-TFE (1:1 [vol/vol]) mimics hydrophobic environment of cell membrane. The figure above represents the CD spectra of peptides in benign buffer without TFE, whilst the figure below represents CD spectra obtained in the presence of 50% TFE.
# [2] = RP-HPLC temperature profiling: hydrophobicity and self-association; type: physicochemical; conditions: for tR(min) 5° C. / tR(min) 80° C.: RP-HPLC temperature profiling; for PA (min), association parameter: maximal normalized retention time difference within 5-80° C., self-association ability; for tR(min) Max: maximal retention time during temperature profiling 5-80° C.; for ΔtR(X-Peptide C)(min) 5° C.: retention time difference to control peptide C at 5° C.; for ΔtR(X-Peptide C)(min) 5° C. / ΔtR(X-Peptide C)(min) 80° C.: relative hydrophobicity; for ΔtR(X-Peptide C)(min) 80° C.: retention time difference to control peptide C at 80° C.; for Hydrophobicity tR5: retention time in RP-HPLC at pH 2, 5° C.; for Hydrophobicity tR80: retention time in RP-HPLC at pH 2, 80° C.
# Method: Peptides are analyzed on an Agilent 1200 series liquid chromatograph (Little Falls, Del.). Runs are performed on a Zorbax 300 SB-C8 column (150×4.6 mm I.D.; 5 μm particle size, 300 Å pore size) from Agilent Technologies using linear AB gradient (1% acetonitrile/min) and a flow rate of 1 ml/min, where solvent A is 0.05% aqueous TFA, pH 2 and solvent B is 0.05% TFA in acetonitrile.
# We further use temperature profiling during RP-HPLC to determine the self-association ability of various analogs of PL-13 (SEQ ID NO: 1) which would occur through interaction of the non-polar faces of these amphipathic peptides α-helices. We use 50% TFE aqueous acetonitrile and hydrophobic conditions in the reversed-phase column (hydrophobic stationary phase and the hydrophobic organic solvent in the mobile phase) since the hydrophobic environment of a reversed-phase column also could induce α-helical structure. Since its introduction, the technique of RP-HPLC temperature profiling has been applied on several types of molecules, including cyclic β-sheet peptides, monomeric α-helices and α-helices that dimerize, as well as α-helices that dimerize to form coiled-coils. Although peptides are eluted from a reversed-phase column mainly by an adsorption/desorption mechanism, even a peptide strongly bound to a hydrophobic stationary phase will partition between the matrix and the mobile phase when the acetonitrile content becomes high enough during gradient elution. In summary, the mechanism is based on four assumptions: (i) at low temperature, just as an amphipathic α-helical peptide is able to dimerize in aqueous solution (through its hydrophobic, non-polar face), it will dimerize in solution during partitioning in reversed-phase chromatography; (ii) at higher temperatures, the monomer-dimer equilibrium favors the monomer as the dimer is disrupted; (iii) at sufficiently high temperatures, only monomer is present in solution; and (iv) peptide is always bound in its monomeric helical form to the hydrophobic stationary phase, i.e., the dimer can only be present in solution and disruption of the dimer is required for rebinding to the RP-HPLC matrix.
# ([θ]222=−3,950). Since peptide C is a monomeric random coil peptide in both aqueous and hydrophobic media, its retention behavior over the temperature range 5-80° C. represents only general temperature effects on peptide retention behavior, i.e., a linear decrease in peptide retention time with increasing temperature due to greater solute diffusivity and enhanced mass transfer between the stationary and mobile phases at higher temperatures. Thus, after normalization to the retention times of peptide C, the retention behavior of the peptides only represents peptide self-association ability. Note that the higher the PA value, the greater the self-association ability. The order of peptide self-association ability of the three pairs of peptide enantiomers is identical to the order of peptide hydrophobicity. Apart from the decrease in retention time due to the general temperature effects noted above, destruction of the α-helix will also occur with increasing temperature, resulting in reduced retention times as the peptides become increasingly random coils.
# The retention time data for the peptides is shown in Table 6 which records retention times at 5° C., the maximal retention times and retention times at 80° C. during the temperature profiling. Temperatures of 5-80° C. are the lower and upper temperature limits of temperature profiling in RP-HPLC, representing polymerization of the peptides at 5° C. and the monomerization of peptides at 80° C. due to denaturation of peptides by high temperature and dissociation of the polymers. The maximal retention times represent the threshold points at which peptides totally transform from polymeric to monomeric form. […]
# candida glabrata = assay: microbe, parasite or virus in culture; type: cell-based
# Method: as §1
# aspergillus fumigatus = assay: microbe, parasite or virus in culture; type: cell-based
# Method: as §1
# candida tropicalis = assay: microbe, parasite or virus in culture; type: cell-based
# Method: as §1
molecule,measurement,setting,value
CC(=O)N[C@H](Cc1ccccc1)C(=O)N[C@H](CCCCN)C(=O)N[C@H](CCCCN)C(=O)N[C@H](CC(C)C)C(=O)N[C@H](CCCCN)C(=O)N[C@H](CCCCN)C(=O)N[C@H](CC(C)C)C(=O)N[C@H](Cc1ccccc1)C(=O)N[C@H](CO)C(=O)N[C@H](CCCCN)C(=O)N[C@H](CC(C)C)C(=O)N[C@H](CC(C)C)C(=O)N[C@H](CC(N)=O)C(=O)N[C@H](CC(C)C)C(=O)N[C@H](CCCCN)C(N)=O [PL-37] (Ac-[dF][dK][dK][dL][dK][dK][dL][dF][dS][dK][dL][dL][dN][dL][dK]-NH2),Minimal inhibitory concentration,aspergillus flavous,>64 µg/mL
CC(=O)N[C@H](CCCCN)C(=O)N[C@H](CC(C)C)C(=O)N[C@H](CCCCN)C(=O)N[C@H](CCCCN)C(=O)N[C@H](CC(C)C)C(=O)N[C@H](Cc1ccccc1)C(=O)N[C@H](CO)C(=O)N[C@H](CCCCN)C(=O)N[C@H](CC(C)C)C(=O)N[C@H](Cc1c[nH]c2ccccc12)C(=O)N[C@H](CC(N)=O)C(=O)N[C@H](Cc1c[nH]c2ccccc12)C(=O)N[C@H](CCCCN)C(N)=O [PL-40] (Ac-[dK][dL][dK][dK][dL][dF][dS][dK][dL][dW][dN][dW][dK]-NH2; N-terminus and C-terminus assumed),Minimal inhibitory concentration,candida albicans,16 µg/mL
same,Minimal inhibitory concentration,aspergillus flavous,>64 µg/mL
same,50% TFE % helix,[1],70.7%
same,Benign buffer % helix,[1],6.0%
same,tR(min) 5° C.,[2],33.16 min
same,tR(min) 80° C.,[2],30.94 min
same,"PA (min), association parameter",[2],0.55 min
same,tR(min) Max,[2],33.16 min
same,ΔtR(X-Peptide C)(min) 5° C.,[2],10.60 min
same,ΔtR(X-Peptide C)(min) 80° C.,[2],11.01 min
same,Hydrophobicity tR5,[2],33.16 min
same,Hydrophobicity tR80,[2],30.94 min
CC(=O)N[C@H](CC(C)C)C(=O)N[C@H](Cc1ccccc1)C(=O)N[C@H](CCCCN)C(=O)N[C@H](CCCCN)C(=O)N[C@H](CC(C)C)C(=O)N[C@H](CCCCN)C(=O)N[C@H](CCCCN)C(=O)N[C@H](CC(C)C)C(=O)N[C@H](Cc1ccccc1)C(=O)N[C@H](CO)C(=O)N[C@H](CCCCN)C(=O)N[C@H](CC(C)C)C(=O)N[C@H](Cc1c[nH]c2ccccc12)C(=O)N[C@H](CC(N)=O)C(=O)N[C@H](Cc1c[nH]c2ccccc12)C(=O)N[C@H](CCCCN)C(N)=O [PL-51] (Ac-[dL][dF][dK][dK][dL][dK][dK][dL][dF][dS][dK][dL][dW][dN][dW][dK]-NH2; N-terminus and C-terminus assumed),Minimal inhibitory concentration,aspergillus flavous,>64 µg/mL
same,50% TFE % helix,[1],100.0%
same,Benign buffer % helix,[1],16.8%
same,50% TFE [θ]222,"[1]; mean residue molar ellipticity at 222 nm, 25° C., buffer containing 50% TFE",28200 deg · cm^2 · dmol^−1
same,tR(min) 5° C.,[2],42.59 min
same,tR(min) 80° C.,[2],41.35 min
same,"PA (min), association parameter",[2],1.63 min
same,tR(min) Max,[2],42.96 min
same,ΔtR(X-Peptide C)(min) 5° C.,[2],20.02 min
same,ΔtR(X-Peptide C)(min) 80° C.,[2],21.42 min
same,Hydrophobicity tR5,[2],42.59 min
same,Hydrophobicity tR80,[2],41.35 min
Ac-FKKFKKLLSKLWNWK-NH2 (N-terminus and C-terminus assumed) [PL-32],Minimal inhibitory concentration,candida glabrata,32 µg/mL
same,Minimal inhibitory concentration,aspergillus flavous,>64 µg/mL
same,Minimal inhibitory concentration,aspergillus fumigatus,64 µg/mL
Ac-FKKLKKKFSKLWNWK-NH2 (N-terminus and C-terminus assumed) [PL-23],Minimal inhibitory concentration,candida albicans,16 µg/mL
same,Minimal inhibitory concentration,candida glabrata,32 µg/mL
same,Minimal inhibitory concentration,aspergillus flavous,>64 µg/mL
same,Minimal inhibitory concentration,aspergillus fumigatus,64 µg/mL
Ac-FKKLKKLFSKLWNWKK-NH2 (N-terminus and C-terminus assumed) [PL-48],Minimal inhibitory concentration,aspergillus flavous,>64 µg/mL
same,Minimal inhibitory concentration,aspergillus fumigatus,32 µg/mL
same,Minimal inhibitory concentration,candida tropicalis,8 µg/mL
Ac-KKLKKLFSKLWNW-NH2 (N-terminus and C-terminus assumed) [PL-30],Minimal inhibitory concentration,candida albicans,16 µg/mL
same,Minimal inhibitory concentration,candida glabrata,32 µg/mL
same,Minimal inhibitory concentration,aspergillus flavous,>64 µg/mL
